Laboratory results as given in article PMC9124820, “In vitro evaluation of fenfluramine and norfenfluramine as victims of drug interactions” (Pharmacology Research & Perspectives, 2022).

Columns and labels:
[1] = molecular target: T1, rCYP2C19 (Homo sapiens, UniProt P33261); assay: Reaction phenotyping with rCYP2C19; assay type: in vitro ADME; details: rCYP2C19, 60 min
T1 construct: purchased Cypex, Ltd; host or cells: Escherichia coli
Method: (§1) For FFA and nFFA reaction phenotyping experiments, LC‐MS/MS experiments were performed using an API 4000 QTRAP or QTRAP 5500 mass spectrometer (SCIEX) with positive electrospray ionization. Chromatography was performed using an Atlantis dC18 analytical column (100 × 2.1 mm, 5 µm; Waters Corporation). Mobile phases were 0.2% v/v formic acid in water and 0.2% v/v formic acid in methanol. FFA and nFFA were eluted at a flow rate of 0.5 mL/min with a linear gradient of 40%−95% methanol from 0.20−2.1 min. The mass transitions monitored were 232.0>109.0 for FFA, 204.0>159.0 for nFFA, 348.0>330.0 for 1’‐hydroxymidazolam‐d4 internal standard (FFA reaction phenotyping), and 262.0>244.0 for hydroxybupropion‐d6 internal standard (nFFA reaction phenotyping). Analyst Instrument Control and Data Processing software (v. 1.6.1) was used for collecting and integrating data (SCIEX). Calibration curves ranging from 1.25 µM−0.01 µM were used to quantify nFFA. Relative quantitation was used to approximate the amount of FFA test material used.
(§2) Methods used to evaluate the role of CYP450s in the metabolism of FFA have been described.[22], [23], [24] […] Supernatant fractions were analyzed by LC‐MS/MS.

[2] = molecular target: T2, rCYP1A2 (Homo sapiens, UniProt P05177); assay: Reaction phenotyping with rCYP1A2; assay type: in vitro ADME
T2 construct: purchased Cypex, Ltd; host or cells: Escherichia coli
T2 sequence (P05177 1-516): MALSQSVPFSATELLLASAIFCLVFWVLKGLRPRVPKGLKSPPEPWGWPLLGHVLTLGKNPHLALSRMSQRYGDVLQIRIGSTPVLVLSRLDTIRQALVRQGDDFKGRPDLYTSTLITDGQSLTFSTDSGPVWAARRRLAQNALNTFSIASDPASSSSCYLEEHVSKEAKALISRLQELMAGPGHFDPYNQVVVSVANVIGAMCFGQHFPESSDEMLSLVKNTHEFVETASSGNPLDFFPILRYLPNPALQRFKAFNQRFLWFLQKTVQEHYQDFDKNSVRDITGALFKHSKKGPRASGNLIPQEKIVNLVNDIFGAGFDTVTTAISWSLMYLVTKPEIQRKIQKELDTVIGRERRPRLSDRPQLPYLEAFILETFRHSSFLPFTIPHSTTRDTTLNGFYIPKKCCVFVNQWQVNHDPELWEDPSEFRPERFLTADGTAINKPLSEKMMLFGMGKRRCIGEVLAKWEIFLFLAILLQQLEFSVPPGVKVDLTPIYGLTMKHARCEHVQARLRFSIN
Method: as §1, §2

T1 sequence (P33261 whole entry): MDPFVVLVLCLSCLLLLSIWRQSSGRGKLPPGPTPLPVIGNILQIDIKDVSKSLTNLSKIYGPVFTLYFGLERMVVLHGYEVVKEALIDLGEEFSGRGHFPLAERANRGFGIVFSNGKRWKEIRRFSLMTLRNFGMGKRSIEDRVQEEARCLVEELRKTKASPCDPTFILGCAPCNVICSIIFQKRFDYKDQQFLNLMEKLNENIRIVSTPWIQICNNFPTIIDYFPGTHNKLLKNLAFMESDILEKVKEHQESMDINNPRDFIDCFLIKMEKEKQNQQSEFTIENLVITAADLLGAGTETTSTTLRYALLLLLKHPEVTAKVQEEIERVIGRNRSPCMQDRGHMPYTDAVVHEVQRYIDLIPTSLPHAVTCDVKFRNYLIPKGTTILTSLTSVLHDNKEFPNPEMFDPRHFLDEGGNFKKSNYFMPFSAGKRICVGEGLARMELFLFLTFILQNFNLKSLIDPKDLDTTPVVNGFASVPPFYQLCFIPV

CCNC(C)Cc1cccc(C(F)(F)F)c1 (racemic) [FFA, (RS)‐ethyl (α‐methyl‐3‐trifluoromethylphenethyl)amine]
Disappearance of FFA ([1]; 1 μM FFA): 49%
FFA loss ([1]; 10 μM FFA): 50%
Disappearance of FFA ([2]; 1 μM FFA, 25 pmol rCYP1A2, 60 min): 23%
FFA loss ([2]; 10 μM FFA, rCYP1A2, 60 min): 22%
clearance accounted for in vivo (CYP inhibition by stiripentol/clobazam plus renal clearance): approximately 80%
maximum possible amount remaining for metabolism by MAO (human, in vivo, 0.1 mg/kg twice daily): ≤ 20%
